# Source: patent US7922998B2, “Gastrin releasing peptide compounds” (Bracco Imaging S.p.A., priority 2003, dated 2011)
# Entries after “also recorded” stand apart in the source; their conditions may differ.
# Legend:
# NMB-R = target: T1, NMB-R (Rattus norvegicus, UniProt P24053); test: Competition with 125I-NMB for NMB-R in C6 cells (Example LX); assay type: binding, rodent; conditions: for receptor subtype preference (GRP-R / NMB-R): in words, from IC50 with 125I-NMB (C6) and 125I-BBN (PC3), cut off 10× the IC50 of [Tyr4]-BBN
# T1 construct: C6, an NMB-R expressing rodent glioblastoma cell line; host or cells: C6 glioma cells, intact and plated
# T1 sequence (P24053 1-390): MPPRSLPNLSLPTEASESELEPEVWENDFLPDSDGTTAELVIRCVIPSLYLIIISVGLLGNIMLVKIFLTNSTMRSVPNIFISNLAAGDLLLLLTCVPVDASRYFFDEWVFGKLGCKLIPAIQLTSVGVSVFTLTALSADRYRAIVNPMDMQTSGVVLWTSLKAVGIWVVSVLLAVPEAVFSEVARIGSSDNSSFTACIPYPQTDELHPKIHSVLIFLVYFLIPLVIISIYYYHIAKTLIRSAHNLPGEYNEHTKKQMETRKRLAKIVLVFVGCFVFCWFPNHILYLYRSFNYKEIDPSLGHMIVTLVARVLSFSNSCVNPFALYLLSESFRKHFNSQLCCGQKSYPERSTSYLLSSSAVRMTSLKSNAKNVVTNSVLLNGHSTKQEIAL
# Experimental: Two cell lines, C6, an NMB-R expressing rodent glioblastoma cell line and PC3, a GRP-R expressing human prostate cancer cell line, were used in this assay. The affinity of various unlabeled compounds for each receptor subtype (NMB-R and GRP-R) was determined indirectly by measuring its ability to compete with the binding of ^125I-NMB or ^125I-BBN to its corresponding receptors in C6 and PC3 cells.
# Cells for the assays were plated at a concentration of 9.6×10^4/well in 48 well poly-lysine coated plates (Beckton Dickinson Biocoat).
# • Custom made ^125I-[Tyr^0]NMB, >2.0 Ci/μmole (Amersham Life Science) [^125I-NMB] and commercially available ^125I-[Tyr^4]BBN, >2.0 Ci/μmole (Perkin Elmer Life Science) [^125I-BBN] were used as radioligands.
# • Using a 48-well plate assay system (for C6 study) competition experiments were performed using ^125I-NMB. […] Selection of compounds for the assay was based on linker subtype.
# The binding parameters obtained from the studies were analyzed using a one-site competition non-linear regression analysis with GraphPad Prism. The relative affinity of various compounds for NMB-R in C6 cells were compared with those obtained using commercially available [Tyr^4]-BBN and [Tyr^0]-NMB. To distinguish the GRP-R preferring compounds from NMB-R plus GRP-R preferring compounds, IC50 values obtained for each compound was compared with those obtained from [Tyr^0]-BBN with ^125I-NMB on C6 cells.
# GRP-R = target: T2, GRP-R (Homo sapiens, UniProt P30550); test: Competition assay of modified BBN analogs with 125I-BBN for GRP-R in PC3 cells (Example LXI); assay type: binding; conditions: in words
# T2 construct: host or cells: PC3 human prostate cancer cells, intact and plated
# Experimental: • PC3 cell lines were obtained from ATCC(CRL-1435) and cultured in RPMI 1640 (ATCC) supplemented with 2 mM L-glutamine, 1.5 g/L Sodium bicarbonate, 10 mM HEPES and 10% FBS. […] PC3 cells for the assays were plated at a concentration of 2.0×10^4 cells/well in a 96-well white/clear bottom plates (Falcon Optilux-I). Plates were used for the assays on day 2 of the post-plating.
# • RPMI 1640 (ATCC) containing 25 mM HEPES, 0.2% BSA fraction V, 1.0 mM AEBSF (CAS #3087-99-7) and 0.1% Bacitracin (CAS #1405-87-4), pH 7.4.
# • ^125I-BBN (Cat # NEX258) was obtained from PerkinElmer Life Sciences.
# • All compounds tested were dissolved in binding buffer and appropriate dilutions were also done in binding buffer. PC3 cells for assay were seeded at a concentration of 2.0×10^4/well either in 96-well black/clear collagen I cellware plates (Beckton Dickinson Biocoat). Plates were used for binding studies on day 2 post-plating. The plates were checked for confluency (>90% confluent) prior to assay. […] The studies were conducted with an assay volume of 75 μl per well. Triplicate wells were used for each data point. After the addition of the appropriate solutions, plates were incubated for 1 hour at 4° C. Incubation was ended by the addition of 200 uL of ice-cold incubation buffer. Plates were washed 5 times and blotted dry. Radioactivity was detected using either a LKB CompuGamma counter or a microplate scintillation counter.
# [1] = test system: PC3 tumor-bearing nude mouse model; test: Radiotherapy Long Term Efficacy Study; assay type: in vivo; conditions: 177Lu labeled, 30 mCi/kg, up to 120 days; vs same controls; FIG. 15B
# [2] = test system: PC3 tumor-bearing nude mouse model; test: Radiotherapy Short Term Efficacy Study; assay type: in vivo
# Experimental: • Radiotherapy studies were performed using the PC3 tumor-bearing nude mouse model. […] (n=12 for each treatment group for up to 30 days, and n=36 for the pooled untreated control group for up to 31 days). […] The subjects were housed in a barrier environment for the duration of the study. Body weight and tumor size (by caliper measurement) were collected on each subject 3 times per week for the duration of the study. Criteria for early termination included: death; loss of total body weight (TBW) equal to or greater than 20%; tumor size equal to or greater than 2 cm^3.
# PC3 cells = test: Internalization & Efflux Assay in PC3 cells; assay type: cell-based, human; conditions: for Internalisation (40 minutes): 40 min at 37° C., Lu-177 complexes (125I-BBN as comparator); for Efflux (2 h): percent efflux 2 h after loading 40 min at 37° C., Lu-177 complexes
# Experimental: • These studies were conducted in a 96-well plate. […] Incubations were stopped by the addition of 200 μl of ice-cold binding buffer. Plates were washed twice with binding buffer. To remove surface-bound radioligand, the cells were incubated with 0.2M acetic acid (in saline), pH 2.8 for 2 min. Plates were centrifuged and the acid wash media were collected to determine the amount of radioactivity which was not internalized. The cells were collected to determine the amount of internalized ^125I-BBN, and all samples were analyzed in the gamma counter. Data for the internalization assay was normalized by comparing counts obtained at the various time points with the counts obtained at the final time point (T40 min). • For the efflux studies, after loading the PC3 cells with ^125I-BBN or radiolabeled compounds of the invention for 40 min at 37° C., the unbound material was filtered, and the % of internalization was determined as above. The cells were then resuspended in binding buffer at 37° C. for up to 3 h.
# [3] = test system: PC3 tumor-bearing nude mice; assay type: in vivo, mouse; conditions: in words; for uptake in the tumor compared with control: 1 and 24 h
# Experimental: • Low dose pharmacokinetic studies (e.g., biodistribution studies) were performed using the below-identified compounds of the invention in xenografted, PC3 tumor-bearing nude mice ([Ncr]-Foxn1). In all studies, mice were administered 100 μL of ^177Lu-labeled test compound at 200 μCi/kg, i.v., with a residence time of 1 and 24 h per group (n=3-4). Tissues were analyzed in an LKB 1282 CompuGamma counter with appropriate standards.
# [4] = Table 10, class cut off 10x the IC50 of [Tyr4]-BBN with 125I-NMB on C6 cells, yes or dash
# [5] = 177Lu labeled, 30 mCi/kg, up to 30 days, vs untreated and vs DO3A-monoamide-Aoc-QWAVGHLM-NH2 control, FIG. 15A
# T2 sequence (P30550 whole entry): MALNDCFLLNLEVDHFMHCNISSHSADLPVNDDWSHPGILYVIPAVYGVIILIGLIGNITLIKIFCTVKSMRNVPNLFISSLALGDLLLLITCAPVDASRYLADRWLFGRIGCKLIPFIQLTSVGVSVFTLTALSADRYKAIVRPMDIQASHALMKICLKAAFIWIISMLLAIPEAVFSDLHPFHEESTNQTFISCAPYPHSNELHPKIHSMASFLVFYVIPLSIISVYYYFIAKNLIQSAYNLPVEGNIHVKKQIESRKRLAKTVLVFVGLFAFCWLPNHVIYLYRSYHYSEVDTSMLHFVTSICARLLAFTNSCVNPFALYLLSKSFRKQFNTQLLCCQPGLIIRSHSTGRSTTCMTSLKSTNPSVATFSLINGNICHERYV
compound,measurement,setting,value
"N-[(3β,5β,12α)-3-[[[[[4,7,10-Tris(carboxymethyl)-1,4,7,10-tetraazacyclododec-1-yl]acetyl]amino]acetyl]amino]-[4′-Amino-2′-methyl biphenyl-4-carboxyl]-L-glutaminyl-L-tryptophyl-L-alanyl-L-valyl-glycyl-L-histidyl-L-leucyl-L-methioninamide [Compound L206]",GRP-R & NMB-R (binds both with similar affinity),NMB-R; [4],yes
"N-[(3β,5β,12α)-3-[[[4,7,10-Tris(carboxymethyl)-1,4,7,10-tetraazacyclododec-1-yl]acetyl]amino]-glycyl-4-aminobenzoyl-L-glutaminyl-L-tryptophyl-L-alanyl-L-valyl-glycyl-L-histidyl-L-phenylalanyl-L-methioninamide [Compound L228]",competition / activity at GRP-R,GRP-R,maintains GRP-R activity
"N-[4-[[[[4,7,10-Tris(carboxymethyl)-1,4,7,10tetraazacyclododec-1-yl]acetyl]glycyl]amino]-3-methoxybenzoyl]-L-glutaminyl-L-tryptophyl-1-alanyl-L-valyl-glycyl-L-histidyl-L-leucyl-L-methioninamide [Compound L240]",receptor subtype preference (GRP-R / NMB-R),NMB-R,selective affinity to GRP-R
"N-[4-[[[[4,7,10-Tris(carboxymethyl)-1,4,7,10tetraazacyclododec-1-yl]acetyl]glycyl]amino]3-chlorobenzoyl]L-glutaminyl-L-tryptophyl-1-alanyl-L-valyl-glycyl-L-histidyl-L-leucyl-L-methioninamide [Compound L241]",GRP-R & NMB-R (binds both with similar affinity),NMB-R; [4],yes
DO3A-Gly-Abz-4-Gln-Trp-Ala-Val-Gly-His-Phe-Leu-NH2 [Compound L300],competition / activity at GRP-R,GRP-R,high activity at the GRP-R
"N-[[4,7,10-Tris(carboxymethyl)-1,4,7,10-tetraazacyclododec-1-yl]acetyl]glycyl-4-piperidinecarbonyl-L-glutaminyl-L-tryptophyl-L-alanyl-L-valyl-glycyl-L-histidyl-L-leucyl-L-methioninamide [Compound L74]",GRP-R & NMB-R (binds both with similar affinity),NMB-R; [4],yes
"N-[(3β,5β,12α)-3-[[[[[4,7,10-Tris(carboxymethyl)-1,4,7,10-tetraazacyclododec-1-yl]acetyl]amino]acetyl]amino]-4-hydrazinobenzoyl-L-glutaminyl-L-tryptophyl-L-alanyl-L-valyl-glycyl-L-histidyl-L-leucyl-L-methioninamide [Compound L202]",GRP-R & NMB-R (binds both with similar affinity),NMB-R; [4],yes
"N-[4-[[[[[4,7,10-Tris(carboxymethyl)-1,4,7,10-tetraazacyclododec-1-yl]acetyl]amino]acetyl]amino]benzoyl]-L-glutaminyl-L-tryptophyl-L-alanyl-L-valyl-glycyl-L-histidyl-L-leucyl-L-methioninamide [Compound L70]",survival,[1],significantly increased survival
same,GRP-R & NMB-R (binds both with similar affinity),NMB-R; [4],yes
same,receptor subtype preference (GRP-R / NMB-R),NMB-R,dual affinity
same,survival,"[2]; mouse, in vivo",increased survival
same,Internalisation (40 minutes),PC3 cells,70%
same,Efflux (2 h),PC3 cells,12%
DO3A-monoamide-N-4-aminoethyl-N-1-piperazineacetic acid-BBN(7-14) [Compound L89],GRP-R (preferentially binds GRP-R),NMB-R; [4],yes
same,receptor subtype preference (GRP-R / NMB-R),NMB-R,GRP-R selectivity
"N,N-dimethylglycine-Ser-Cys(Acm)-Gly-Asp-8-amino-3,6-dioxaoctanoic acid-BBN(7-14) [Compound L3]",GRP-R & NMB-R (binds both with similar affinity),NMB-R; [4],yes
"N-[(3β,5β,12α)-3-[[[4,7,10-Tris(carboxymethyl)-1,4,7,10-tetraazacyclododec-1-yl]acetyl]amino]-glycyl-4-aminobenzoyl-L-glutaminyl-L-tryptophyl-L-alanyl-glycyl-L-histidyl-L-phenylalanyl-L-leucinamide [Compound L224]",competition / activity at GRP-R,GRP-R,complete loss of binding
"CSCC[C@H](NC(=O)[C@H](CC(C)C)NC(=O)[C@H](Cc1c[nH]cn1)NC(=O)CNC(=O)[C@@H](NC(=O)[C@H](C)NC(=O)[C@H](Cc1c[nH]c2ccccc12)NC(=O)[C@H](CCC(N)=O)NC(=O)CC[C@@H](C)[C@H]1CC[C@H]2[C@@H]3[C@H](O)C[C@@H]4C[C@@H](NC(=O)CNC(=O)CN5CCN(CC(=O)O)CCN(CC(=O)O)CCN(CC(=O)O)CC5)CC[C@]4(C)[C@H]3C[C@H](O)[C@]12C)C(C)C)C(N)=O [Compound L64, N-[(3β,5β,7α,12α)-3-[[[[[4,7,10-Tris(carboxymethyl)-1,4,7,10-tetraazacyclododec-1-yl]acetyl]amino]acetyl]amino]-7,12-dihydroxy-24-oxocholan-24-yl]-L-glutaminyl-L-tryptophyl-L-alanyl-L-valyl-glycyl-L-histidyl-L-leucyl-L-methioninamide]",survival,[1],significantly increased survival
same,GRP-R & NMB-R (binds both with similar affinity),NMB-R; [4],yes
same,receptor subtype preference (GRP-R / NMB-R),NMB-R,dual affinity for both GRP-R and NMB-R
same,survival,[2]; [5],increased survival
same,Internalisation (40 minutes),PC3 cells,69%
same,Efflux (2 h),PC3 cells,20%
same,uptake in the mouse pancreas compared with control,[3],much higher
same,uptake in the tumor compared with control,[3],much higher
"CSCC[C@H](NC(=O)[C@H](CC(C)C)NC(=O)[C@H](Cc1c[nH]cn1)NC(=O)CNC(=O)[C@@H](NC(=O)[C@H](C)NC(=O)[C@H](Cc1c[nH]c2ccccc12)NC(=O)[C@H](CCC(N)=O)NC(=O)CC[C@@H](C)[C@H]1CC[C@H]2[C@@H]3CC[C@@H]4C[C@@H](NC(=O)CNC(=O)CN5CCN(CC(=O)O)CCN(CC(=O)O)CCN(CC(=O)O)CC5)CC[C@]4(C)[C@H]3C[C@H](O)[C@]12C)C(C)C)C(N)=O [Compound L63, N-[(3β,5β,12α)-3-[[[[[4,7,10-Tris(carboxymethyl)-1,4,7,10-tetraazacyclododec-1-yl]acetyl]amino]acetyl]amino]-12-hydroxy-24-oxocholan-24-yl]-L-glutaminyl-L-tryptophyl-L-alanyl-L-valyl-glycyl-L-histidyl-L-leucyl-L-methioninamide]",GRP-R & NMB-R (binds both with similar affinity),NMB-R; [4],yes
same,receptor subtype preference (GRP-R / NMB-R),NMB-R,dual affinity for both GRP-R and NMB-R
same,survival,[2]; [5],increased survival
same,Internalisation (40 minutes),PC3 cells,64%
same,Efflux (2 h),PC3 cells,0%
same,uptake in the mouse pancreas compared with control,[3],much higher
same,uptake in the tumor compared with control,[3],high tumour uptake
same,"distribution of radioactivity in the blood, liver and kidneys compared with control",[3]; vs DO3A-monoamide-Aoc-QWAVGHLM-NH2,increased blood and liver values at early times
"N,N-dimethylglycine-Ser-Cys(Acm)-Gly-N-4-aminoethyl-N-1-piperazineacetic acid-Ser-BBN(7-14) [Compound L28]",GRP-R & NMB-R (binds both with similar affinity),NMB-R; [4],yes
"N-[(3β,5β,12α)-3-[[[4,7,10-Tris(carboxymethyl)-1,4,7,10-tetraazacyclododec-1-yl]acetyl]amino]-4-aminobenzoyl-glycyl-L-glutaminyl-L-tryptophyl-L-alanyl-L-valyl-glycyl-L-histidyl-L-leucyl-L-methioninamide [Compound L204]",Receptor preference in words (cell spanning the GRP-R and GRP-R & NMB-R columns),NMB-R; Table 10,preference to NMB-R
same,GRP-R & NMB-R (binds both with similar affinity),NMB-R; [4],yes
same,receptor subtype preference (GRP-R / NMB-R),NMB-R,selective affinity to NMB-R; also recorded: favor the NMB subtype
DO3A-monoamide-8-amino-octanoic acid-BBN (7-14) [reference compound],Internalisation (40 minutes),PC3 cells,89%
same,Efflux (2 h),PC3 cells,28%
"N,N-dimethylglycine-Ser-Cys(Acm)-Gly-N-1-piperazineacetic acid-8-amino-3,6-dioxaoctanoic acid-BBN(7-14) [Compound L36]",GRP-R & NMB-R (binds both with similar affinity),NMB-R; [4],yes
"N-[(3β,5β,12α)-3-[[[4,7,10-Tris(carboxymethyl)-1,4,7,10-tetraazacyclododec-1-yl]acetyl]amino]-glycyl-4-aminobenzoyl-L-leucyl-L-tryptophyl-L-alanyl-L-valinyl-glycyl-L-serinyl-L-phenylalanyl-L-methioninamide [Compound L225]",competition / activity at GRP-R,GRP-R,reduces competition at the GRP-R
